From patent publication US20190375708A1 (VenatoRx Pharmaceuticals, Inc., priority 2018, published 2019)

Tests used:
[1] = tested on: HBV replication in HepAD38 cells; assay: Anti-HBV replication assay in HepAD38 cells (QPCR of extracellular HBV DNA); type: cell-based, HBV (genotype D, serotype ayw); conditions: Hepatitis B virus, 168 h, 7 days incubation, extracellular HBV DNA by QPCR, read-out: Anti-HBV EC50
Summary of the method: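 EC50 values reflect 50% reduction of extracellular HBV DNA, measured by QPCR after 7-day treatment of tetracycline-deprived HepAD38 cells with compound […].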

[2] = In vitro cytotoxicity assay (MTT cell viability) in HepG2 cells; type: cell-based, human; conditions: human
Summary of the method: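 CC50 values reflect loss of HepG2 viability after a 7-day exposure at 37 °C, 5% CO2. After 3-4 h with MTT, solubilized formazan was quantified at 492 nm relative to vehicle wells.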

Row | SMILES | EC50 [1] | CC50 at 7 days [2]
1 | Cc1cc(NC(=O)c2c(C)c(C(=O)C(=O)N[C@H]3CCNC3=O)n(C)c2C)ccc1F [Example 671, (S)-N-(4-fluoro-3-emthylphenyl)-1,2,4-trimethyl-5-(2-oxo-2-((2-oxopyrroldin-3-yl)amino)acetyl)-1H-pyrrole-3-carboxamide] | < 50 nM | > 30000 nM
2 | O=C(NC1(CO)CC(F)(F)C1)C(=O)c1c(Cl)c(C(=O)Nc2ccnc(F)c2)c2n1CCCC2 [Example 511, 2-chloro-3-(2-((3,3-difluoro-1-(hydroxymethyl)cyclobutyl)amino)-2-oxoacetyl)-N-(2-fluoropyridin-4-yl)-5,6,7,8-tetrahydroindolizine-1-carboxamide] | 50 to 499 nM | > 30000 nM
3 | Cc1cc(NC(=O)c2c(C)c(C(=O)C(=O)Nc3cccnc3)n(C)c2C)cnc1F [Example 339, N-(6-fluoro-5-methylpyridin-3-yl)-1,2,4-trimethyl-5-(2-oxo-2-(pyridin-3-ylamino)acetyl)-1H-pyrrole-3-carboxamide] | 500 to 1000 nM | > 30000 nM
4 | Cc1cc(NC(=O)c2c(Cl)c(C(=O)C(=O)NC(C)(C)CO)n3c2CCC3)ccc1F [Example 540, 6-chloro-N-(4-fluoro-3-methylphenyl)-5-(2-((1-hydroxy-2-methylpropan-2-yl)amino)-2-oxoacetyl)-2,3-dihydro-1H-pyrrolizine-7-carboxamide] | < 50 nM | > 30000 nM
5 | Cc1cc(NC(=O)c2c(C)c(C(=O)C(=O)N[C@H]3c4ccccc4C[C@H]3O)n(C)c2C)ccc1F [Example 260, N-(4-fluoro-3-methylphenyl)-5-(2-(((1S,2R)-2-hydroxy-2,3-dihydro-1H-inden-1-yl)amino)-2-oxoacetyl)-1,2,4-trimethyl-1H-pyrrole-3-carboxamide] | < 50 nM | 5000 to 30000 nM
6 | CCn1c(C)c(C(=O)Nc2ccc(F)c(C)c2)c(C)c1C(=O)C(=O)NC1(C(F)(F)F)CCOCC1 [Example 285, 1-ethyl-N-(4-fluoro-3-methylphenyl)-2,4-dimethyl-5-(2-oxo-2-((4-(trifluoromethyl)tetrahydro-2H-pyran-4-yl)amino)acetyl)-1H-pyrrole-3-carboxamide] | < 50 nM | > 30000 nM
7 | Cc1cc(NC(=O)c2c(C)c(C(=O)C(=O)N[C@@H](C(=O)O)C(C)(C)C)n(C)c2C)ccc1F [Example 31, (R)-2-(2-(4-((4-fluoro-3-methylphenyl)carbamoyl)-1,3,5-trimethyl-1H-pyrrol-2-yl)-2-oxoacetamido)-3,3-dimethylbutanoic acid] | 50 to 499 nM | > 30000 nM
8 | Cc1cc(NC(=O)c2c(C)c(C(=O)C(=O)NC(C)(C)CCO)n(C)c2C)ccc1F [Example 11, N-(4-fluoro-3-methylphenyl)-5-(2-((4-hydroxy-2-methylbutan-2-yl)amino)-2-oxoacetyl)-1,2,4-trimethyl-1H-pyrrole-3-carboxamide] | < 50 nM | > 30000 nM
9 | O=C(NC1(CO)CCC1)C(=O)c1c(Cl)c(C(=O)Nc2ccc(F)c(F)c2)c2n1CCC2 [Example 558, 6-chloro-N-(3,4-difluorophenyl)-5-(2-((1-(hydroxymethyl)cyclobutyl)amino)-2-oxoacetyl)-2,3-dihydro-1H-pyrrolizine-7-carboxamide] | < 50 nM | > 30000 nM
10 | Cc1cc(NC(=O)c2c(Cl)c(C(=O)C(=O)NC3(CO)CC(F)(F)C3)n3c2CCC3)cnc1F [Example 579, 6-chloro-5-(2-((3,3-difluoro-1-(hydroxymethyl)cyclobutyl)amino)-2-oxoacetyl)-N-(6-fluoro-5-methylpyridin-3-yl)-2,3-dihydro-1H-pyrrolizine-7-carboxamide] | 500 to 1000 nM | > 30000 nM
11 | Cc1c(C(=O)Nc2ccc(F)c(F)c2)c(Cl)c(C(=O)C(=O)NC2(C)CC(F)(F)C2)n1C [Example 375, 4-chloro-5-(2-((3,3-difluoro-1-methylcyclobutyl)amino)-2-oxoacetyl)-N-(3,4-difluorophenyl)-1,2-dimethyl-1H-pyrrole-3-carboxamide] | < 50 nM | > 30000 nM
12 | Cc1cc(NC(=O)c2c(C)c(C(=O)C(=O)N3CCc4nc(N)sc4C3)n(C)c2C)ccc1F [Example 49, 5-(2-(2-amino-6,7-dihydrothiazolo[5,4-c]pyridin-5(4H)-yl)-2-oxoacetyl)-N-(4-fluoro-3-methylphenyl)-1,2,4-trimethyl-1H-pyrrole-3-carboxamide] | 50 to 499 nM | > 30000 nM
13 | Cc1c(C(=O)NC2CCCC2)c2n(c1C(=O)C(=O)NC(C)(C)CO)CCCC2 [Example 754] | 50 to 499 nM | > 30000 nM
14 | Cc1cc(NC(=O)c2c(C)c(C(=O)C(=O)NC3(CO)CC(F)(F)C3)n(CCF)c2C)ccc1F [Example 179, 5-(2-((3,3-difluoro-1-(hydroxymethyl)cyclobutyl)amino)-2-oxoacetyl)-N-(4-fluoro-33-methylphenyl)-1-(2-fluoroethyl)-2,4-dimethyl-1H-pyrrole-3-carboxamide] | < 50 nM | 5000 to 30000 nM
15 | Cc1c(C(=O)Nc2ccc(F)c(F)c2)c2n(c1C(=O)C(=O)NC1(C)CCNCC1)CCCC2 [Example 742] | 50 to 499 nM | > 30000 nM
16 | Cc1cc(NC(=O)c2c(C)c(C(=O)C(=O)NC34CC5CC(CC3C5)C4)n(C)c2C)cnc1F [Example 113, N-(6-fluoro-5-methylpyridin-3-yl)-5-(2-(((2R,3as,5S,6as)-hexahydro-2,5-methanopentalen-3a(1H)-yl)amino)-2-oxoacetyl)-1,2,4-trimethyl-1H-pyrrole-3-carboxamide] | < 50 nM | > 30000 nM
17 | Cc1cc(NC(=O)c2c(C)c(C(=O)C(=O)NCc3cnc(N)s3)n(C)c2C)ccc1F [Example 97, 5-(2-(((2-aminothiazol-5-yl)methyl)amino)-2-oxoacetyl)-N-(4-fluoro-3-methylphenyl)-1,2,4-trimethyl-1H-pyrrole-3-carboxamide] | < 50 nM | > 30000 nM
18 | Cc1c(C(=O)Nc2ccc(F)c(Cl)c2)c2n(c1C(=O)C(=O)NC1(CO)CC1)CCCC2 [Example 453, N-(3-chloro-4-fluorophenyl)-3-(2-((1-(hydroxymethyl)cyclopropyl)amino)-2-oxoacetyl)-2-methyl-5,6,7,8-tetrahydroindolizine-1-carboxamide] | 50 to 499 nM | > 30000 nM
19 | Cc1cc(NC(=O)c2c(Cl)c(C(=O)C(=O)N[C@H](C)C(F)(F)F)n3c2CCCC3)cnc1F [Example 732] | 50 to 499 nM | > 30000 nM
20 | CC[C@H](C)NC(=O)C(=O)c1c(Cl)c(C(=O)Nc2cnc(F)c(C)c2)c2n1CCCC2 [Example 729, (S)-3-(2-(sec-butylamino)-2-oxoacetyl)-2-chloro-N-(6-fluoro-5-methylpyridin-3-yl)-5,6,7,8-tetrahydroindolizine-1-carboxamide] | 50 to 499 nM | > 30000 nM
21 | Cc1c(C(=O)Nc2cccc(Cl)c2)c(C)n(C)c1C(=O)C(=O)NC1(C(F)(F)F)CCOCC1 [Example 604, N-(3-chlorophenyl)-1,2,4-trimethyl-5-(3-oxo-2-((4-(trifluoromethyl)tetrahydro-2H-pyran-4-yl)amino)acetyl)-1H-pyrrole-3-carboxamide] | < 50 nM | 5000 to 30000 nM
22 | Cc1cc(NC(=O)c2c(C)c(C(=O)C(=O)NC(C)(C)CO)n3c2CCCC3)ccc1F [Example 436, N-(4-fluoro-3-methylphenyl)-3-(2-((1-hydroxy-2-methylpropan-2-yl)amino)-2-oxoacetyl)-2-methyl-5,6,7,8-tetrahydroindolizine-1-carboxamide] | 50 to 499 nM | > 30000 nM
23 | Cc1cc(NC(=O)c2c(C)c(C(=O)C(=O)NC3(CO)CCCC3)n(C)c2C)ccc1F [Example 359, N-(4-fluoro-3-methylphenyl)-5-(2-((1-(hydroxymethyl)cyclopentyl)amino)-2-oxoacetyl)-1,2,4-trimethyl-1H-pyrrole-3-carboxamide] | < 50 nM | > 30000 nM
24 | Cc1cc(NC(=O)c2cc(C(=O)C(=O)NC(C)(C)C)n3c2CCC3)ccc1F [Example 536, 5-(2-(tert-butylamino)-2-oxoacetyl)-N-(4-fluoro-3-methylphenyl)-2,3-dihydro-1H-pyrrolizine-7-carboxamide] | < 50 nM | > 30000 nM
25 | Cc1cc(NC(=O)c2c(Cl)c(C(=O)C(=O)NCC(C)(C)O)n(C)c2C)ccc1F [Example 364, 4-chloro-N-(4-fluoro-3-methylphenyl)-5-(2-((2-hydroxy-2-methylpropyl)amino)-2-oxoacetyl)-1,2-dimethyl-1H-pyrrole-3-carboxamide] | < 50 nM | 5000 to 30000 nM
26 | Cc1cc(NC(=O)c2c(C)c(C(=O)C(=O)NCc3nc(C(F)(F)F)no3)n(C)c2C)ccc1F [Example 243, N-(4-fluoro-3-methylphenyl)-1,2,4-trimethyl-5-(2-oxo-2-(((3-(trifluoromethyl)-1,2,4-oxadiazol-5-yl)methyl)amino)acetyl)-1H-pyrrole-3-carboxamide] | < 50 nM | 5000 to 30000 nM
27 | Cc1cc(NC(=O)c2c(C)c(C(=O)C(=O)N[C@H](C)C(F)(F)F)n(C)c2C)cnc1F [Example 165, (R)-N-(6-fluoro-5-methylpyridin-3-yl)-1,2,4-trimethyl-5-(2-oxo-2-((1,1,1-trifluoropropan-2-yl)amino)acetyl)-1H-pyrrole-3-carboxamide] | < 50 nM | > 30000 nM
28 | Cc1cc(NC(=O)c2c(Cl)c(C(=O)C(=O)NC(C)(C)CO)n3c2CCCC3)cnc1F [Example 508, 2-chloro-N-(6-fluoro-5-methylpyridin-3-yl)-3-(2-((1-hydroxy-2-methylpropan-2-yl)amino)-2-oxoacetyl)-5,6,7,8-tettrahydroindolizine-1-carboxamide] | 500 to 1000 nM | > 30000 nM
